Experimental data published in patent publication US12281335B2, “Methods and compositions for delivery of viral vectors across the blood-brain barrier” (priority 2017, dated 2025).
Entries after “also recorded” stand apart in the source; their conditions may differ. Ends that are not written are not given here.

Legend:
[1] = test system: AAV9 virions; assay: Phage binding to AAV-coated plate
Protocol: FIGS. 13A-13B show binding specificity of PB5-3 peptide to AAV9. After coating with 1×10^10 particles of AAV9, different phages at a dose of 1×10^11 were added to a 96 well plate and incubated. After washing, the number of bound phages was detected (FIG. 13A). A 96 well-plate was coated with 1×10^10 particles of AAV vectors/well from serotypes 6, 8 and 9 overnight. After washing, 1×10^11 of PB5-3 phages were added and incubated at room temperature for 2 hrs. After washing, the phage particles were detected (FIG. 13B).
To study the AAV9 virion binding affinity of the peptides isolated from phage, first we compared the affinity of the different peptides to AAV9 virions. After incubation of an AAV9-coated plate with different phages and several washings, much more PB5-3 phages were detected to bind to AAV9 than PB5-5 and PB5-14 phages (FIG. 13A). […] We coated the plate with AAV virions from different serotypes. After incubation with PB5-3 phages, the number of phages on the AAV9-coated plate was much higher than that with AAV6 and AAV8 (FIG. 13B).

[2] = test system: different cell types; conditions: different concentrations, 48 hrs
Protocol: 1×10^4 cells were incubated with PB5-3 peptide at different concentrations for 48 hrs. Cell proliferation was analyzed with MTT assay (FIG. 14A). AAV9/luc vectors at a dose of 1×10^9 particles were incubated with PB5-3 peptide for 2 hrs at 4° C., then the mixture was applied to different cells and incubated for 2 days. Luciferase expression from cell lysate was detected (FIG. 14B). For comparison, PB5-3 was added to cells just before infection of AAV9 (FIG. 14C).

[3] = test system: BBB hCMEC/D3 endothelial cells; assay: In vitro endothelial cell permeability analysis of AAV9; type: cell-based, human; conditions: AAV9 pre-incubated with PB5-3 vs AAV9 with DPBS
Protocol: Media in the basal chamber was collected at indicated time points and viral genome copy number was analyzed by qPCR. All treatments were performed in triplicate. *p<0.05 when compared to cells with the AAV9 only.
PB5-3 peptide enhances AAV9 permeability in vitro. To study whether PB5-3 affects the ability of AAV9 to cross the endothelial cell layer, we performed an in vitro endothelial cell permeability analysis in a well-defined system using BBB hCMEC/D3 endothelial cells. Two groups were designed: an AAV9 vector incubated with DPBS (AAV9 cohort); and an AAV9 vector incubated with PB5-3 (AAV9-PB5-3 cohort). […] These observations indicate that the interaction of AAV9 with the PB5-3 peptide increased the ability of AAV9 to cross the BBB.

[4] = test system: C57BL mice; assay: Systemic administration of AAV9/PB5-3 complex, imaging and genome copy number; type: in vivo, mouse
Protocol: 1×10^10 particles of AAV9/luc vectors were incubated with PB5-3 for 2 hr at 4° C. The complex was injected into C57BL mice via the retro-orbital vein. At indicated time points, mouse imaging was performed. (FIG. 16A) representative imaging. (FIG. 16B) luciferase expression. (FIG. 16C) AAV genome copy number. The results represented the average and standard derivation from five mice.
PB5-3 peptide enhances AAV9 transduction in the brain after systemic administration. To study the effect of PB5-3 peptide on AAV9 transduction in mice, we injected AAV9 vectors pre-incubated with PB5-3 peptide into C57BL mice via the retro-orbital vein. At days 1, 3, 7, and 14 post AAV administration, mouse imaging was taken. […] Transduction in the liver was similar regardless of AAV9 pre-incubation with PB5-3 peptide (FIG. 16B). Consistent to tissue transgene expression, AAV genome copy number in the brain but not in other tissues was higher in mice receiving the complex of AAV9 and PB5-3 (FIG. 16C).

[5] = test system: C57BL mice; assay: Systemic administration of AAV6 and AAV8 pre-incubated with PB5-3, imaging; type: in vivo, mouse; conditions: pre-incubated with PB5-3, days 5 and 10
Protocol: AAV/luc vectors from serotypes 6 or 8 at a dose of 5×10^10 or 1×10^10 particles, respectively, were incubated with PB5-3 for 2 hrs at 4° C. The complex was injected into C57BL mice via retro-orbital vein. At day 5 and 10 post AAV injection, mouse imaging was carried out. Representative imaging is shown from five mice.
No effect of PB5-3 peptide on AAV brain transduction from other serotypes after systemic administration. To confirm the result in vitro that PB5-3 peptide could not efficiently bind to other AAV serotypes except for AAV9, we administered AAV6 and AAV8 vectors pre-incubated with PB5-3 in C57BL mice via retro-orbital injection. At days 5 and 10 post AAV application, mouse imaging was carried out.

[6] = test system: Huh7 or hCMEC/D3 cells; assay: Transduction of AAV serotypes 2, 6 and 8 with PB5-3 in vitro; type: cell-based; conditions: incubated with PB5-3; either cell line
Protocol: 1×10^9 particles of AAV/luc vectors from serotype 2 (FIG. 15A), 6 (FIG. 15B), and 8 (FIG. 15C) were incubated with PB5-3 peptide for 2 hr at 4° C. The complex of AAV vector and peptide was applied to Huh7 or hCMEC/D3 cells. Two days later, the lysate from these cells was harvested for luciferase analysis.
Analysis of enhancement of AAV transduction from other serotypes with PB5-3 peptide in vitro. To further investigate the specific effect of PB5-3 on AAV9, we tested the effect of PB5-3 on AAV transduction from other serotypes. AAV vectors from serotypes 2, 6, and 8 were incubated with PB5-3 and then the mixture was applied to Huh7 or hCMEC/D3 cells. The transduction was detected two days later after AAV infection.

[7] = test system: Huh7, Hela, C2C12 and hCMEC/D3; assay: AAV9/luc transduction in cell lines with PB5-3; type: cell-based
Protocol: Cell proliferation was analyzed with MTT assay (FIG. 14A). […] Luciferase expression from cell lysate was detected (FIG. 14B).
PB5-3 peptide specifically enhances AAV9 transduction in cell lines. Next, we examined the effect of PB5-3 on AAV9 transduction in vitro. […] Consistent with previous studies, the direct interaction of peptide and AAV virions is required to enhance AAV9 transduction.

QFAALPVRAHYG-NH2 [PB5-3]
number of phages on AAV9-coated plate vs other serotypes ([1]; vs AAV6 and AAV8 coated plates): much higher | phages bound to AAV9-coated plate ([1]; vs PB5-5 and PB5-14 phages): much more | toxicity (MTT assay) [2]: no toxicities | endothelial cell permeability of AAV9 [3]: significant increase in the endothelial cell permeability; also recorded: increases AAV9 permeability | AAV9 transduction in brain (imaging) ([4]; 1×10^10 particles AAV9/luc pre-incubated with PB5-3, retro-orbital vein): specifically enhanced AAV9 ability to cross the BBB and increase brain transduction; also recorded: high transduction in brain tissues | AAV genome copy number in the brain ([4]; complex of AAV9 and PB5-3, not in other tissues): higher | AAV9 transduction in the liver ([4]; with vs without PB5-3 pre-incubation): similar | brain transduction from AAV6 and AAV8 [5]: No brain transduction enhancement; also recorded: no effect | transduction of AAV2, 6 or 8 [6]: No enhanced transduction; also recorded: no enhancement | AAV9 transduction, PB5-3 incubated with AAV9 virions ([7]; 2 hrs at 4° C. pre-incubation, Huh7, Hela, C2C12 and hCMEC/D3): enhanced transduction; also recorded: specifically enhances AAV9 transduction in vitro | AAV9 transduction, PB5-3 without incubation ([7]; PB5-3 added to cells just before infection of AAV9): failed to increase AAV9 transduction
